In patent US6743800B1, “Naphthyridine derivatives, processes for their preparation, their use and pharmaceutical compositions comprising them” (Aventis Pharma Deutschland GmbH, priority 1999, dated 2004):

What was measured:
[1] = molecular target: T1, human vitronectin receptor αvβ3 (Homo sapiens, UniProt P05106+P06756); experiment: Kistrin binding assay (αvβ3 ELISA test, K/VnR); settings: inhibition of binding of kistrin to human vitronectin receptor αvβ3, ELISA
T1 construct: Human vitronectin receptor is obtained from the human placenta according to the method of Pytela et al; from tissue; host or cells: human placenta (alternative: 293 cells co-transfected with αv and β3 DNA)
T1 sequence (P06756 31-889 limits assumed): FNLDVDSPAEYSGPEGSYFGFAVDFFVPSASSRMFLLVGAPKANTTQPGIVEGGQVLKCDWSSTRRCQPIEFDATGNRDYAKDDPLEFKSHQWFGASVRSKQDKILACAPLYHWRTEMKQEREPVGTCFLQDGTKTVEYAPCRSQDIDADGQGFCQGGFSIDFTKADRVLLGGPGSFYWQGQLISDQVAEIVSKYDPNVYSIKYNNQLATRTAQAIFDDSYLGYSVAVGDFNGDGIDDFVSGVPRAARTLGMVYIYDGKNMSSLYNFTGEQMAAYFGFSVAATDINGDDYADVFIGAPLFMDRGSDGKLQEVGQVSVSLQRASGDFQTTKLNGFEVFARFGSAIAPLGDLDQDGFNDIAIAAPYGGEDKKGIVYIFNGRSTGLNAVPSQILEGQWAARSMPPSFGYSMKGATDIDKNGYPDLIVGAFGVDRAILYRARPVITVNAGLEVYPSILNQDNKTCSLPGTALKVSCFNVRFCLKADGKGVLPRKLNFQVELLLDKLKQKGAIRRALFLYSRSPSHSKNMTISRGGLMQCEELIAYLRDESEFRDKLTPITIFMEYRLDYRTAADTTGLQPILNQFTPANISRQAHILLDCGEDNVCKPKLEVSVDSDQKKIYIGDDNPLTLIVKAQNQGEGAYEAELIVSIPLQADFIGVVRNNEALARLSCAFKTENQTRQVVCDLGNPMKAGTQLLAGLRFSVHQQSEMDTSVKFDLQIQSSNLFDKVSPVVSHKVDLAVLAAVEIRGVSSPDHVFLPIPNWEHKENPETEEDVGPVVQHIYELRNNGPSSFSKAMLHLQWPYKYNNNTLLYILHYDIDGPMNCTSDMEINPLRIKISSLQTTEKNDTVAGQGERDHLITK
T1 sequence (P06756 891-1048 partner limits assumed): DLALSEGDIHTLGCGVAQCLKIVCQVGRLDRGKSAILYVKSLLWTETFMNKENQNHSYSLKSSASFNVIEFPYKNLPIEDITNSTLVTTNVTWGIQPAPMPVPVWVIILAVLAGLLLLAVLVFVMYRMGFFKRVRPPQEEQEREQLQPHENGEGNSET
T1 sequence (P05106 27-788): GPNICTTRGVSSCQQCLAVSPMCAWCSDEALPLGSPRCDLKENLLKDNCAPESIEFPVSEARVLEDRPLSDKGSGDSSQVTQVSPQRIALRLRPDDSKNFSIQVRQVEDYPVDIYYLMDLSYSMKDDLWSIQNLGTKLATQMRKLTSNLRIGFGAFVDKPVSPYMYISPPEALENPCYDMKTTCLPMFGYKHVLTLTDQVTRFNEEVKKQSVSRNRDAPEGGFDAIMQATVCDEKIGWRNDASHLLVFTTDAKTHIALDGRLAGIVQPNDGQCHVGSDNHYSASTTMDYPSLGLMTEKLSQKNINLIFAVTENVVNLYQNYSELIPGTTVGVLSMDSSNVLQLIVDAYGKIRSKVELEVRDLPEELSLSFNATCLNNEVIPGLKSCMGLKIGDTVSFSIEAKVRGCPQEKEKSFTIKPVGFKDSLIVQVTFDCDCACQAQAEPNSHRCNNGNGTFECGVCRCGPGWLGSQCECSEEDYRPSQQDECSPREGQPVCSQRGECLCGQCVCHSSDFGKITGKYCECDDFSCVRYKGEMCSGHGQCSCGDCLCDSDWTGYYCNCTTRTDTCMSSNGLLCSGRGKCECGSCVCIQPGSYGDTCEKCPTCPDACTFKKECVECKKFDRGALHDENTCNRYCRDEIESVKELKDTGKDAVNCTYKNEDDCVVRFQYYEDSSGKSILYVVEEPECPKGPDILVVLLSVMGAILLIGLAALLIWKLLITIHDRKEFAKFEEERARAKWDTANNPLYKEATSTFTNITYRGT
From the text: The inhibition of the binding of kistrin to human vitronectin receptor (VnR) described below is a test method by which the antagonistic action of the compounds of the invention on the vitronectin receptor αvβ3 can be determined (αvβ3 ELISA Test; the test method is abbreviated as “K/VnR” in the listing of the test results).
Kistrin is purified according to the methods of Dennis et al., as described in Proc. Natl. Acad. Sci. USA 87 (1989) 2471 and Proteins: Structure, Function and Genetics 15 (1993) 312.
Purification of Human Vitronectin Receptor (αvβ3)
Human vitronectin receptor is obtained from the human placenta according to the method of Pytela et al., Methods Enzymol. 144 (1987) 475. Human vitronectin receptor αvβ3 can also be obtained from some cell lines (for example from 293 cells, a human embryonic kidney cell line) which are co-transfected with DNA sequences for both subunits αv and β3 of the vitronectin receptor. The subunits are extracted with octyl glycoside and then chromatographed through concanavalin A, heparin-Sepharose and S-300.
Murine monoclonal antibodies which are specific for the β3 subunits of the vitronectin receptor, are prepared according to the method of Newman et al., Blood, 1985, 227, or by a similar process. The rabbit Fab 2 anti-mouse Fc conjugate to horseradish peroxidase (anti-mouse Fc HRP) was obtained from Pel Freeze (Catalog No. 715 305-1).
The ability of substances to inhibit the binding of kistrin to the vitronectin receptor can be determined using an ELISA test. For this purpose, Nunc 96-well microtiter plates are coated with a solution of kistrin (0.002 mg/ml) according to the method of Dennis et al., as described in Proteins: Structure, Function and Genetics 15 (1993) 312. The plates are then washed twice with PBS/0.05% Tween-20 and blocked by incubating (60 min) with bovine serum albumin (BSA, 0.5%, RIA grade or better) in buffer solution (Tris-HCl (50 mM), NaCl (100 mM), MgCl2 (1 mM), CaCl2 (1 mM), MnCl2 (1 mM), pH 7). Solutions of known inhibitors and of the test substances are prepared in concentrations from 2×10^−12 to 2×10^−6 mol/l in assay buffer (BSA (0.5%, RIA grade or better); Tris-HCl (50 mM); NaCl (100 mM), MgCl2 (1 mM), CaCl2 (1 mM), MnCl2 (1 mM), pH 7). The blocked plates are emptied, and in each case 0.025 ml of this solution which contains a defined concentration (2×10^−12 to 2×10^−6 mol/l) either of a known inhibitor or of a test substance, are added to each well. 0.025 ml of a solution of the vitronectin receptor in assay buffer (0.03 mg/ml) is pipetted into each well of the plate and the plate is incubated at room temperature for 60-180 min on a shaker. In the meantime, a solution (6 ml/plate) of a murine monoclonal antibody specific for the β3 subunit of the vitronectin receptor is prepared in assay buffer (0.0015 mg/ml). A second rabbit antibody (0.001 ml of stock solution/6 ml of the murine monoclonal anti-β3 antibody solution) which is an anti-mouse Fc HRP antibody conjugate is added to this solution, and this mixture of murine anti-β3 antibody and rabbit anti-mouse Fc HRP antibody conjugate is incubated during the time of the receptor-inhibitor incubation. The test plates are washed four times with PBS solution which contains 0.05% Tween-20, and in each case 0.05 ml/well of the antibody mixture is pipetted into each well of the plate and incubated for 60-180 min. The plate is washed four times with PBS/0.05% Tween-20 and then developed with 0.05 ml/well of a PBS solution which contains 0.67 mg/ml of o-phenylenediamine and 0.012% of H2O2 . Alternatively to this, o-phenylenediamine can be employed in a buffer (pH 5) which contains Na3PO4 and citric acid. The color development is stopped using 1 N H2SO4 (0.05 ml/well). The absorption for each well is measured at 492-405 nm and the data are evaluated by standard methods.

[2] = molecular target: 293 cells cotransfected with αv and β3 subunits of the vitronectin receptor αvβ3 (Homo sapiens, UniProt P05106+P06756); experiment: Vitronectin/293 cell test (inhibition of binding of 293 cells to human vitronectin); assay type: cell-based; settings: inhibition of binding of αvβ3-expressing 293 cells to human vitronectin; read-out: Vn/293 cell test IC50
Chain of 293 cells cotransfected with αv and β3 subunits of the vitronectin receptor αvβ3 (P05106 whole entry): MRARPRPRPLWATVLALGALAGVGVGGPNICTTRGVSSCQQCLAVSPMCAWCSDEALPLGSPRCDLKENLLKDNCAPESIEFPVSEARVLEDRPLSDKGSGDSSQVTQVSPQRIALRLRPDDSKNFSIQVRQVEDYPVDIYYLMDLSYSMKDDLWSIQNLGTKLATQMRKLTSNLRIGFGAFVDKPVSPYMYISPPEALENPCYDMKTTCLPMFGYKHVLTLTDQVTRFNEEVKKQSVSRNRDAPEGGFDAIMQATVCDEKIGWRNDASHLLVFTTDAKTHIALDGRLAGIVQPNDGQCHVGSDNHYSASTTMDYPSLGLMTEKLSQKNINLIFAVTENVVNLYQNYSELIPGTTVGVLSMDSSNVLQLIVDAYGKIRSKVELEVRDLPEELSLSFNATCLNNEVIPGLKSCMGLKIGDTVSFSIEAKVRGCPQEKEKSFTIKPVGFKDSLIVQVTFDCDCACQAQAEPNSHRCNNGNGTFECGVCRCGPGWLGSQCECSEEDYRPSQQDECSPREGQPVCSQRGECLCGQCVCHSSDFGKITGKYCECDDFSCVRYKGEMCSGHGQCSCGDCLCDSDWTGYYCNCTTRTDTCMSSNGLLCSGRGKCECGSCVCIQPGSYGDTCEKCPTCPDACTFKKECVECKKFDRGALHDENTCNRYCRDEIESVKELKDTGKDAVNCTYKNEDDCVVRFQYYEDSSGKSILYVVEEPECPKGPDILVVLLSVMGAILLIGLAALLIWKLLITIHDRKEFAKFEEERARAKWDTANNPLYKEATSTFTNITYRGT
Chain of 293 cells cotransfected with αv and β3 subunits of the vitronectin receptor αvβ3 (P06756 whole entry): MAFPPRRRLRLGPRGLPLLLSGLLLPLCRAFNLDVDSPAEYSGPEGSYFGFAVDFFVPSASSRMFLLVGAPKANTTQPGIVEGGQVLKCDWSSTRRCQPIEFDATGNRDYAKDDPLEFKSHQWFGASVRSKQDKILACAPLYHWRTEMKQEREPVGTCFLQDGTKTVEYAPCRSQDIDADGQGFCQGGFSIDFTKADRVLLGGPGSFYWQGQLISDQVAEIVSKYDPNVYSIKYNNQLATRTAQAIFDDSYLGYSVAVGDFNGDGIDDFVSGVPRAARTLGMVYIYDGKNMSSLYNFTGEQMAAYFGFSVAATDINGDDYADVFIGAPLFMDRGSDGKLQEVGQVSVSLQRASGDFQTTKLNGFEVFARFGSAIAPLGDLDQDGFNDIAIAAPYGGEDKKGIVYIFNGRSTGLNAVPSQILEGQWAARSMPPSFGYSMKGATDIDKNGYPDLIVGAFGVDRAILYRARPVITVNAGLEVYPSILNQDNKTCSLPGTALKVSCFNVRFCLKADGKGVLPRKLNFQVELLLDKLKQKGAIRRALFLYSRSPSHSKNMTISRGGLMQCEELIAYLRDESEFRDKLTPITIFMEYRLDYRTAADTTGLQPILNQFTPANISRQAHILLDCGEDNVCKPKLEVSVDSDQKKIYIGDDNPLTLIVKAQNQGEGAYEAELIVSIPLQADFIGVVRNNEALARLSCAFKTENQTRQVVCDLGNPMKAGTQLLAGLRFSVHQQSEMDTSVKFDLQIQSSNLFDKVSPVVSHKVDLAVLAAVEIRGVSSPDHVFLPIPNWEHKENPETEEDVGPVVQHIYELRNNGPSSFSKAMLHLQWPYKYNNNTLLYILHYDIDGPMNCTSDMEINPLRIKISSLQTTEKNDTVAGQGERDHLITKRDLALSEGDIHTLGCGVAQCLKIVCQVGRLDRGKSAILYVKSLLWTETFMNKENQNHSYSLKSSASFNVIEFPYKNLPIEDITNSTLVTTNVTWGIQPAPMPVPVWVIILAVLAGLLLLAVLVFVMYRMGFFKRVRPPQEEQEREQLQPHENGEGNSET
Protocol: 2) Vitronectin/293 Cell Test
In this test the inhibition of binding of 293 cells to human vitronectin (Vn) by the compounds of the invention is determined (the test method is abbreviated as Vn/293 cell test in the listing of the test results).
Purification of Human Vitronectin
Human vitronectin was isolated from human plasma and purified by affinity chromatography according to the method of Yatohgo et al., Cell Structure and Function 23 (1988) 281.
293 cells, a human embryonic kidney cell line, which were cotransfected with DNA sequences for the αv and β3 subunits of the vitronectin receptor αvβ3, were selected for a high rate of expression (>500,000 αvβ3 receptors/cell) according to the FACS method. The selected cells were cultured and sorted again by means of FACS in order to obtain a stable cell line (15 D) with expression rates >1,000,000 copies of αvβ3 per cell.
A Linbro 96-well tissue culture plate with a flat bottom was coated overnight at 4° C. with human vitronectin (0.01 mg/ml, 0.05 ml/well) in phosphate-buffered saline solution (PBS) and then blocked with 0.5% strength BSA (bovine serum albumin). Solutions of the test substances from 10^−10 mol/l to 2×10^−3 mol/l in glucose-containing DMEM medium were prepared and 0.05 ml/well of the solution were added to the plate in each case. The cells which expressed high levels of αvβ3 (for example 15 D) were suspended in glucose-containing DMEM medium and the suspension was adjusted to a content of 25,000 cells/0.05 ml of medium. 0.05 ml of this cell suspension was added to each well and the plate was incubated at 37° C. for 90 min. The plate was washed 3 times with warm PBS in order to remove unbound cells. The bound cells were lyzed in citrate buffer (25 mM, pH 5.0) which contained 0.25% Triton X-100. The hexoseamidase substrate p-nitrophenyl-N-acetyl-β-D-glucosaminide was then added and the plate was incubated at 37° C. for 90 min. The reaction was stopped with a glycine (50 mM)/EDTA (5 mM) buffer (pH 10.4) and the absorption of each well was measured at 405 to 650 nm. The data were analyzed according to standard methods.

[3] = test system: bone resorption by osteoclasts; experiment: Pit Assay (osteoclast resorption test); assay type: cell-based; settings: inhibition of bone resorption
From the text: The inhibition of bone resorption by the compounds of the invention can be determined, for example, with the aid of an osteoclast resorption test (“Pit Assay”), for example analogously to WO-A-95/32710 which is incorporated herein by reference.

`O=C(N[C@@H](Cn1cnc2c(N3CCC(c4ccc5c(n4)NCCC5)CC3)ncnc21)C(=O)O)OCc1ccccc1` [Example 1, (2S)-2-Benzyloxycarbonylamino-3-(6-(4-(5,6,7,8-tetrahydro-[1,8]naphthyridin-2-yl)-piperidin-1-yl)-purin-9-yl)-propionic acid] was tested, and the IC50 [1] was 10 nM and the IC50 [2] was 78 nM.
`O=C(O)[C@H](Cn1cnc2c(N3CCC(c4ccc5c(n4)NCCC5)CC3)ncnc21)NS(=O)(=O)c1ccccc1` [Example 2, (2S)-2-Benzenesulfonylamino-3-(6-(4-(5,6,7,8-tetrahydro-[1,8]naphthyridin-2-yl)-piperidin-1-yl)-purin-9-yl)-propionic acid] was tested, and the IC50 [1] was 4.8 nM and the IC50 [2] was 23 nM.
`O=C(O)[C@H](Cn1cnc2c(N3CCC(c4ccc5c(n4)NCCC5)CC3)ncnc21)NS(=O)(=O)c1ccc(Cl)cc1` [Example 3, (2S)-2-(4-Chlorobenzenesulfonylamino)-3-(6-(4-(5,6,7,8-tetrahydro-[1,8]naphthyridin-2-yl)-piperidin-1-yl)-purin-9-yl)-propionic acid] was tested, and the IC50 [1] was 5.1 nM, the IC50 [2] was 15 nM and the IC50 [3] was 0.3 nM.
In the case of `O=C(O)[C@H](Cn1cnc2c(N3CCC(c4ccc5c(n4)NCCC5)CC3)ncnc21)NS(=O)(=O)c1cccc2ccccc12` [Example 4, (2S)-2-(Naphthalene-1-sulfonylamino)-3-(6-(4-(5,6,7,8-tetrahydro-[1,8]naphthyridin-2-yl)-piperidin-1-yl)-purin-9-yl)-propionic acid], the IC50 [1] is reported as 6.4 nM, the IC50 [2] is reported as 24 nM and the IC50 [3] is reported as under 10 nM.
For `O=C(O)[C@H](Cn1cnc2c(N3CCC(c4ccc5c(n4)NCCC5)CC3)ncnc21)NS(=O)(=O)c1ccc(C(F)(F)F)cc1` [Example 5, (2S)-3-(6-(4-(5,6,7,8-Tetrahydro-[1,8]naphthyridin-2-yl)-piperidin-1-yl)-purin-9-yl)-2-(4-trifluoromethylbenzenesulfonylamino)-propionic acid], the IC50 [1] was 5 nM and the IC50 [2] was 22 nM.
For `CCCCS(=O)(=O)N[C@@H](Cn1cnc2c(N3CCC(c4ccc5c(n4)NCCC5)CC3)ncnc21)C(=O)O` [Example 6, (2S)-2-(Butane-1-sulfonylamino)-3-(6-(4-(5,6,7,8-tetrahydro-[1,8]naphthyridin-2-yl)-piperidin-1-yl)-purin-9-yl)-propionic acid], the IC50 [1] was 18 nM and the IC50 [2] was 115 nM.
